According to the supplement of paper PMC6045584:
± gives the standard deviation of the averaged measurements.

Experiments:
[1] = compound: T1, COc1cc2ncnc(Nc3ccc(F)c(Cl)c3)c2cc1OCCCN1CCOCC1 [GEFITINIB]; assay: area under dose-response curve of surviving fraction (unscaled, Aref=0) (surviving fraction x log10(nM)); higher = more resistant; conditions: exposure time: 5 days; dose range 0.5-1000 nM
Procedure, shortened: (§1)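 Tumour cell lines in 384-well plates were exposed for five days to eight inhibitor concentrations from 0.5 to 1000 nM. Viability was read by CellTiter-Glo luminescence, normalised to DMSO-only wells, in three screens per line. Dose-response survival curves were fitted to surviving fractions by 3-parameter logistic regression in the drc R package. Area under the curve is the unscaled activity area (Aref = 0) over log10 dose.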

[2] = compound: T2, COCC[n+]1c2c(n(Cc3cnccn3)c1C)C(=O)c1ccccc1C2=O [YM155]; assay: as above; conditions: exposure time: 5 days; dose range 0.5-1000 nM
Procedure, shortened: as §1

[3] = compound: CC(=O)NCC(=O)N1[C@@H]2CC[C@H]1c1ccc(Nc3ncc(C(F)(F)F)c(NC4CCC4)n3)cc12; assay: as above; conditions: exposure time: 5 days; dose range 0.5-1000 nM
Procedure, shortened: as §1

[4] = compound: T3, CC[C@@]1(O)C(=O)OCc2c1cc1n(c2=O)Cc2cc3ccccc3nc2-1 [CAMPTOTHECIN]; assay: as above; conditions: exposure time: 5 days; dose range 0.5-1000 nM
Procedure, shortened: as §1

[5] = compound: T4, O=C(O)C1(C(=O)O)CCC1.[NH2-].[NH2-].[Pt+2] [CARBOPLATIN]; assay: as above; conditions: exposure time: 5 days; dose range 0.5-1000 nM
Procedure, shortened: as §1

[6] = compound: T5, CC(=O)O[C@H]1C(=O)[C@@]2(C)[C@H]([C@H](OC(=O)c3ccccc3)[C@]3(O)C[C@H](OC(=O)[C@H](O)[C@@H](NC(=O)c4ccccc4)c4ccccc4)C(C)=C1C3(C)C)[C@]1(OC(C)=O)CO[C@@H]1C[C@@H]2O [PACLITAXEL]; assay: as above; conditions: exposure time: 5 days; dose range 0.5-1000 nM
Procedure, shortened: as §1

[7] = compound: T6, C[C@]1(O)C[C@@H](c2nc(-c3ccc4ccc(-c5ccccc5)nc4c3)c3c(N)nccn32)C1 [OSI-906]; assay: as above; conditions: exposure time: 5 days; dose range 0.5-1000 nM
Procedure, shortened: as §1

[8] = compound: T1, GEFITINIB; assay: surviving fraction relative to DMSO-only wells; higher = less growth inhibition; conditions: exposure time: 5 days
Procedure, shortened: (§2)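 Tumour cell lines in log phase were plated in 384-well plates at 250–500 cells per well, then, after 24 hours, exposed continuously for five days to inhibitors at 0.5, 1, 5, 10, 50, 100, 500 and 1000 nM. Viability came from CellTiter-Glo luminescence, and surviving fraction is that signal normalised to the median of DMSO-only wells. Plates were read after 10 minutes at room temperature, and each line, screened three times, was kept only when replicate Pearson r was >0.7 and median Z' was >0.3.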

[9] = compound: CC(=O)c1c(C)c2cnc(Nc3ccc(N4CCNCC4)cn3)nc2n(C2CCCC2)c1=O; assay: as above; conditions: exposure time: 5 days
Procedure, shortened: as §2

[10] = compound: T2, YM155; assay: as above; conditions: exposure time: 5 days
Procedure, shortened: as §2

[11] = compound: CC(=O)NCC(=O)N1[C@@H]2CC[C@H]1c1ccc(Nc3ncc(C(F)(F)F)c(NC4CCC4)n3)cc12; assay: as above; conditions: exposure time: 5 days
Procedure, shortened: as §2

[12] = compound: T3, CAMPTOTHECIN; assay: as above; conditions: exposure time: 5 days
Procedure, shortened: as §2

[13] = compound: T4, CARBOPLATIN; assay: as above; conditions: exposure time: 5 days
Procedure, shortened: as §2

[14] = compound: T5, PACLITAXEL; assay: as above; conditions: exposure time: 5 days
Procedure, shortened: as §2

[15] = compound: T6, OSI-906; assay: as above; conditions: exposure time: 5 days
Procedure, shortened: as §2

[16] = compound: Cc1ccc(-c2cc(C(F)(F)F)nn2-c2ccc(S(N)(=O)=O)cc2)cc1 [CELECOXIB]; assay: as above; conditions: exposure time: 5 days
Procedure, shortened: as §2

## VCAP PROSTATE
[1]
  area under dose-response curve: 3.75
[2]
  area under dose-response curve: 0.945
[3]
  area under dose-response curve: 2.52
[4]
  area under dose-response curve: 1.76
[5]
  area under dose-response curve: 3.55
[6]
  area under dose-response curve: 0.687
[7]
  area under dose-response curve: 2.78
[8]; 0.5 nM
  surviving fraction: 1.13 ± 0.089
[8]; 1 nM
  surviving fraction: 1.11 ± 0.14
[8]; 5 nM
  surviving fraction: 1.13 ± 0.12
[8]; 10 nM
  surviving fraction: 1.15 ± 0.14
[8]; 50 nM
  surviving fraction: 1.19 ± 0.083
[8]; 100 nM
  surviving fraction: 1.08 ± 0.056
[8]; 500 nM
  surviving fraction: 1.21 ± 0.16
[8]; 1000 nM
  surviving fraction: 1.07 ± 0.076
[9]; 0.5 nM
  surviving fraction: 1.08 ± 0.018
[9]; 1 nM
  surviving fraction: 1.08 ± 0.025
[9]; 5 nM
  surviving fraction: 1.14 ± 0.076
[9]; 10 nM
  surviving fraction: 1.17 ± 0.053
[9]; 50 nM
  surviving fraction: 1.1 ± 0.13
[9]; 100 nM
  surviving fraction: 1.18 ± 0.025
[9]; 500 nM
  surviving fraction: 0.829 ± 0.11
[9]; 1000 nM
  surviving fraction: 0.773 ± 0.0044
[10]; 0.5 nM
  surviving fraction: 0.826 ± 0.049
[10]; 1 nM
  surviving fraction: 0.9053 ± 0.0074
[10]; 5 nM
  surviving fraction: 0.34 ± 0.025
[10]; 10 nM
  surviving fraction: 0.286 ± 0.051
[10]; 50 nM
  surviving fraction: 0.0533 ± 0.027
[10]; 100 nM
  surviving fraction: 0.035 ± 0.007
[10]; 500 nM
  surviving fraction: 0.0293 ± 0.0067
[10]; 1000 nM
  surviving fraction: 0.0617 ± 0.03
[11]; 0.5 nM
  surviving fraction: 1.06 ± 0.051
[11]; 1 nM
  surviving fraction: 1.05 ± 0.086
[11]; 5 nM
  surviving fraction: 1.08 ± 0.11
[11]; 10 nM
  surviving fraction: 0.935 ± 0.053
[11]; 50 nM
  surviving fraction: 0.681 ± 0.075
[11]; 100 nM
  surviving fraction: 0.603 ± 0.016
[11]; 500 nM
  surviving fraction: 0.433 ± 0.021
[11]; 1000 nM
  surviving fraction: 0.327 ± 0.038
[12]; 0.5 nM
  surviving fraction: 0.879 ± 0.094
[12]; 1 nM
  surviving fraction: 0.902 ± 0.052
[12]; 5 nM
  surviving fraction: 0.801 ± 0.1
[12]; 10 nM
  surviving fraction: 0.508 ± 0.034
[12]; 50 nM
  surviving fraction: 0.412 ± 0.028
[12]; 100 nM
  surviving fraction: 0.4023 ± 0.0023
[12]; 500 nM
  surviving fraction: 0.219 ± 0.034
[12]; 1000 nM
  surviving fraction: 0.158 ± 0.069
[13]; 0.5 nM
  surviving fraction: 1.04 ± 0.067
[13]; 1 nM
  surviving fraction: 0.996 ± 0.04
[13]; 5 nM
  surviving fraction: 1.11 ± 0.072
[13]; 10 nM
  surviving fraction: 1.09 ± 0.11
[13]; 50 nM
  surviving fraction: 1.05 ± 0.13
[13]; 100 nM
  surviving fraction: 1.21 ± 0.086
[13]; 500 nM
  surviving fraction: 1.05 ± 0.07
[13]; 1000 nM
  surviving fraction: 1.04 ± 0.18
[14]; 0.5 nM
  surviving fraction: 0.846 ± 0.11
[14]; 1 nM
  surviving fraction: 0.666 ± 0.052
[14]; 5 nM
  surviving fraction: 0.179 ± 0.038
[14]; 10 nM
  surviving fraction: 0.0997 ± 0.0076
[14]; 50 nM
  surviving fraction: 0.077 ± 0.015
[14]; 100 nM
  surviving fraction: 0.0693 ± 0.0068
[14]; 500 nM
  surviving fraction: 0.0677 ± 0.022
[14]; 1000 nM
  surviving fraction: 0.0697 ± 0.0086
[15]; 0.5 nM
  surviving fraction: 0.908 ± 0.023
[15]; 1 nM
  surviving fraction: 0.867 ± 0.039
[15]; 5 nM
  surviving fraction: 0.962 ± 0.028
[15]; 10 nM
  surviving fraction: 0.999 ± 0.14
[15]; 50 nM
  surviving fraction: 0.942 ± 0.16
[15]; 100 nM
  surviving fraction: 0.83 ± 0.064
[15]; 500 nM
  surviving fraction: 0.399 ± 0.046
[15]; 1000 nM
  surviving fraction: 0.188 ± 0.029
[16]; 0.5 nM
  surviving fraction: 1.07 ± 0.068
[16]; 1 nM
  surviving fraction: 1.08 ± 0.17
[16]; 5 nM
  surviving fraction: 1.06 ± 0.067
[16]; 10 nM
  surviving fraction: 1.14 ± 0.1
[16]; 50 nM
  surviving fraction: 1.13 ± 0.018
[16]; 100 nM
  surviving fraction: 1.12 ± 0.072
[16]; 500 nM
  surviving fraction: 1.07 ± 0.029
[16]; 1000 nM
  surviving fraction: 1.05 ± 0.11
